According to patent publication US8518956B2, “1-(1-(2-ethoxyethyl)-3-ethyl-7-(4-methylpyridin-2-ylamino)-1H-pyrazolo[4,3-d]pyrimidin-5-yl) piperidine-4-carboxylic acid and salts thereof” (priority 2005, dated 2013):

Legend:
PDE5 enzyme = biological target: T1, PDE5 enzyme (Homo sapiens, UniProt O76074); assay: Method 1: Human Platelet PDE5 Enzyme Inhibition Scintillation Proximity Assay; format: biochemical; details: METHOD 1: PDE5 IC50, Table B, WO2004096810 examples
T1 construct: The PDE5 enzyme isolated from human platelets; from tissue; host or cells: human platelets
Description: Method 1: Human Platelet PDE5 Enzyme Inhibition Scintillation Proximity Assay
An in vitro assay can be used to evaluate the inhibition of PDE5 enzyme activity by a test compound.
The PDE5 enzyme for use in the assay can be obtained from human platelets by appropriate modification of the method of Thompson, W J et al.; Biochemistry 18(23), 5228-5237, 1979, as described by Ballard S A et al.; J. Urology 159(6), 2164-2171, 1998. The PDE5 enzyme isolated from human platelets can be used to catalyze the hydrolysis of [^3H]cGMP (Amersham Biosciences) to 5′ nucleotide [^3H]GMP. The [^3H]GMP binds to yttrium silicate SPA beads (Amersham Biosciences) and is detected by scintillation counting. More specifically, the effect of the test compound at different concentrations can be evaluated in the assay by contacting the compound with a fixed amount of PDE5 enzyme in the presence of substrate (cGMP or cAMP in a 3:1 ratio unlabelled to [^3H]-labeled). Scintillation counting can be used as described above to determine relative PDE5 enzyme activity. The inhibition of PDE5 enzyme activity is then calculated relative to total PDE5 enzyme activity of uninhibited controls.
PDE5 IC50 Assay: 96-well microtiter plate format
• Buffer A: 20 mM Tris-HCl, 5 mM MgCl2, pH 7.4 • Buffer B: 2 mg/ml BSA in Buffer A (enzyme buffer) • cGMP substrate: Final concentration of 500 nM in assay The amount of ^3H-labeled substrate added depends upon the specific activity of [^3H]cGMP, and the cGMP substrate is diluted with a 10 mM stock of cold cGMP in Buffer A for a final substrate concentration of 500 nM in the assay. • PDE enzyme: Prepared in Buffer B. The dilution factor is determined by enzyme activity. • SPA beads: 20 mg/ml suspension prepared in dH2O.
Stocks of standard and test compounds are prepared at 5 mM in 100% DMSO. The compound is serially diluted in a dilution plate using a 10-point ½ log dilution format. 2 μl of the compound dilution is added in duplicate to the wells of the assay plate. 2 μl of 100% DMSO are added to designated control wells. 25 μl of Buffer A are added to all wells. 25 μl of Buffer B are added to the negative control wells. 25 μl of enzyme are added to the remaining wells. 50 μl of substrate are added to each well. Plates are sealed and incubated for 60 minutes on a plate shaker at 30 C. 50 plof SPA beads are added to stop the reaction. The plates are again sealed and shaken for 15 minutes to allow the beads to bind the GMP product. The beads are allowed to settle for 30 minutes and then read on a NXT TopCount scintillation counter. Data are analyzed with a curve fitting application for plate-based screening. Percent inhibition in this assay is calculated as follows: Inhibition (%)=[(mean maximum−compound value/(mean maximum−mean minimum)]×100.
The IC50 value is determined from sigmoid dose-response curves of enzyme activity versus compound concentration.

PDE11 enzyme = biological target: T2, PDE11 enzyme (Homo sapiens, UniProt Q9HCR9, DUP921-921); assay: Method 3: Human Recombinant PDE11 Enzyme Inhibition Scintillation Proximity Assay (SPA); format: biochemical; details: Table F, WO2004096810 examples; read-out: METHOD 3: PDE11 IC50
T2 construct: FLAG (N); made in house; host or cells: Sf9 insect cells (baculovirus, pFastBac)
T2 sequence (Q9HCR9 with tags, fused parts or gaps DUP921-921 limits assumed): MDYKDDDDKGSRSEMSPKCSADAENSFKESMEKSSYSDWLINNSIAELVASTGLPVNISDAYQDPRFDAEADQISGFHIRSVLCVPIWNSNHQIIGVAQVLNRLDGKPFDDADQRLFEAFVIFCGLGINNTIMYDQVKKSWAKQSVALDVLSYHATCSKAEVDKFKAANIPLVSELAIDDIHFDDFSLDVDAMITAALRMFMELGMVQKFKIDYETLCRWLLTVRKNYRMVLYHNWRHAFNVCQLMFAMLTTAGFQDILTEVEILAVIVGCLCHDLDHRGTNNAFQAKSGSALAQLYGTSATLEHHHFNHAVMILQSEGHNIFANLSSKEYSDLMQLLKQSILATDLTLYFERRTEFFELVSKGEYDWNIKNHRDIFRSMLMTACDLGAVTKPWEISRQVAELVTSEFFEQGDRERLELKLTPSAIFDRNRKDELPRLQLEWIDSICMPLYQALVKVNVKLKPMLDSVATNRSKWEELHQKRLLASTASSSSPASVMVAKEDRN
Experimental: Method 3: Human Recombinant PDE11 Enzyme Inhibition Scintillation Proximity Assay (SPA)
PDE11 Expression and Purification:
Incubate at 27° C. with 220 rpm shaking for 48 hours. Harvest the infected cells by pelleting at 2000 rpm for 10 minutes at 4° C. Store the infected cell pellet at −80° C. until ready for purification. Resuspend the thawed cell pellets to 1×10^7 cells/ml (=20 ml buffer consisting of 20 mM Hepes (pH7.2), 1 mM EDTA, 20 mM sucrose, 150 mM NaCl and protease inhibitor tablets). Mix thoroughly and allow to stand on ice for 10 minutes. Sonicate for 5×5 seconds, on ice. Spin the mixture at 12,000 rpm for 10 minutes at 4° C. in SS34. Store the insoluble pellet at −80° C., and proceed to the purification of the soluble material. • (b) Purification: Prepare the column (1.0 cm diameter, Kontes) by rinsing the empty column twice with TBS. Then mix beads (Anti-FLAG M2 Agarose, Sigma) with TBS and add to the column—allow the beads to settle. Wash the column with 3 column volumes of 0.1M glycine (pH3.5). […] Apply the extract to the column and allow the extract to enter by gravity flow. Reapply the flow-through. Wash the column with 15 column volumes of TBS. Elute the protein with 5×1 ml aliquots of FLAG peptide (Sigma) (i.e., 100 ug/ml in TBS). Elute the remaining protein with 1 ml 0.1M glycine, and immediately add 25 ul 1M Tris pH8 to neutralize. Method 3A: Alternative Human Recombinant PDE11 Enzyme Inhibition Scintillation Proximity Assay (SPA)

PDE6 enzyme = details: read-out: METHOD 2: PDE6 IC50; Table F, WO2004096810 examples
Description: Method 2: Human Retina PDE6 Enzyme Inhibition Scintillation Proximity Assay (SPA)
The inhibition of PDE6 enzyme activity by a test compound can be measured in accordance with the in vitro assay of Method 1, but instead using semi-purified PDE6 enzyme isolated from human, bovine or canine retina in place of PDE5 enzyme. […] [3H]GMP binds to yttrium silicate SPA beads and is detected by scintillation counting. • PDE6 Purification: PDE6 can be isolated and purified from the following: Soluble rod PDE6/Rod Outer Segment PDE6 from Bovine eyes (Charles River Ltd, France); Cone PDE6 from Canine eyes (LAS); or Soluble rod and Cone PDE6 from Human eyes (I.I.A.M.).
While supporting the eye with the cornea uppermost, make a small incision through the conjunctiva below the level of the iris. The incision should be sufficient to allow the humor to escape through the cut. Using fine scissors, cut around the cornea to enable it to be lifted off as a flap. Using a small hook, engage the lens and gently pull it out of orbit, taking care not to pull out the retina at the same time. Allow the retina to drop down of its own accord to the base of the orbit.
Lift the retina with care and locate the optic nerve. Cut through the optic nerve and transfer the retina to a small dish containing a few ml of homogenisation buffer. Gently float the retina out on the surface of the buffer and remove any obvious pigmented material from the iris. Place the retina in a second dish with clean buffer to remove last traces of pigment and then transfer to a 50 ml Corning Costar centrifuge tube (Sigma) and keep on ice. • PDE6 Isolation and Purification from Retina: Allow 2 mls of the homogenisation buffer per bovine retina and 1 ml per retina for dog and human. Homogenise using hand-held homogeniser 3×5 second bursts cooling on ice between each burst. Filter homogenate through two layers of surgical gauze. Spin at 100,000 g for 60 minutes at 4° C. […] Run through FPLC (Pharmacia FPLC LKB/FRAC-100, Pharmacia) or aliquot and store in liquid nitrogen as needed. Method 2A: Alternative Human Retina PDE6 Enzyme Inhibition Scintillation Proximity Assay (SPA)

Row | SMILES | IC50 (PDE5 enzyme) | IC50 (PDE11 enzyme) | IC50 (PDE6 enzyme)
1 | CCN(C)c1nc(Nc2ccc(=O)n(C)c2)c2c(n1)c(COC)nn2CCOCC(F)(F)F [WO2004096810 Example 254] | 0.59 nM | 2880 nM | 188 nM
2 | CCOCCn1nc(COC)c2nc(N(C)CCO)nc(Nc3cc(C)ccn3)c21 [WO2004096810 Example 227] | 0.35 nM | – | –
3 | CCCOCCn1nc(C)c2nc(N3CCN[C@H](C)C3)nc(Nc3ccncn3)c21 [WO2004096810 Example 23] | 0.39 nM | – | –
4 | CCCc1nn(C)c2c(N(C)C3CCN(C)CC3)nc(NC)nc12 [WO2004096810 Example 130] | > 10000 nM | – | –
5 | COCCn1nc(C(C)C)c2nc(N3CCN[C@H](C)C3)nc(Nc3ccc(C)cn3)c21 [WO2004096810 Example 8] | 6.95 nM | – | –
6 | CCc1nn(CCOC)c2c(Nc3cc(C)ccn3)nc(N3CCNCC3)nc12 [WO2004096810 Example 152] | 12.1 nM | – | –
7 | CCOCCn1nc(CC)c2nc(N3C[C@@H](C)NC[C@@H]3C)nc(Nc3ccncn3)c21 [WO2004096810 Example 150] | 1.83 nM | – | –
8 | CCOCCn1nc(CO)c2nc(N(C)CC)nc(Nc3cc(C)ccn3)c21 [WO2004096810 Example 181] | 0.39 nM | – | –
9 | CCOCCn1nc(CO)c2nc(N(C)C)nc(Nc3cc(C)ccn3)c21 [WO2004096810 Example 182] | 4.03 nM | – | –
10 | CCOCCn1nc(CC)c2nc(N3CCN[C@@H](C(C)C)C3)nc(Nc3ccncn3)c21 [WO2004096810 Example 18] | 25.8 nM | – | –
11 | CCOCCn1nc(CC)c2nc(N3CCN[C@@H](C)C3)nc(Nc3ccncn3)c21 [WO2004096810 Example 16] | 0.98 nM | – | –
12 | Cc1ccnc(Nc2nc(N3CCNCC3)nc3c(C)nn(CC4CCCO4)c23)c1 (stereo not drawn) [WO2004096810 Example 166] | 11.5 nM | – | –
13 | COCCn1nc(C(C)C)c2nc(N3CCNCC3)nc(Nc3ccc(C)cn3)c21 [WO2004096810 Example 179] | 18.3 nM | – | –
14 | CNc1nc(Nc2cc(C)ccn2)c2c(n1)c(C)nn2CCCOC [WO2004096810 Example 99] | 239 nM | – | –
15 | CCCc1nn(C)c2c(Nc3cc(OC)ncn3)nc(NC)nc12 [WO2004096810 Example 84] | 247 nM | – | –
16 | CCOCCn1nc(CC)c2nc(N3CCN[C@H](C)C3)nc(N(C)c3ccncn3)c21 [WO2004096810 Example 28] | 47.9 nM | – | –
17 | CCOCCn1nc(C)c2nc(N(C)CCOC)nc(Nc3ccc(=O)n(C)c3)c21 [WO2004096810 Example 202] | 5.46 nM | – | –
18 | CCCc1nn(C)c2c(Nc3ccncn3)nc(N3CCN[C@@H](C)C3)nc12 [WO2004096810 Example 81] | 118 nM | – | –
19 | CCOCCn1nc(CC)c2nc(N3C[C@H](C)NC[C@H]3C)nc(Nc3ccncn3)c21 [WO2004096810 Example 141] | 0.15 nM | – | –

Row | SMILES | IC50 (PDE5 enzyme) | IC50 (PDE11 enzyme) | IC50 (PDE6 enzyme)
20 | CCOCCn1nc(CC)c2nc(N(C)[C@H]3CCN(C)C3)nc(Nc3ccncn3)c21 [WO2004096810 Example 193] | 1.01 nM | – | –
21 | CCOCCn1nc(C)c2nc(N3CCN[C@H](C)C3)nc(Nc3cc(C)ncn3)c21 [WO2004096810 Example 26] | 1.83 nM | – | –
22 | Cc1ccnc(Nc2nc(N3CCNCC3)nc3c(C)nn(Cc4ccccn4)c23)c1 [WO2004096810 Example 167] | 2.95 nM | – | –
23 | CCc1nn(CCOC)c2c(Nc3ccc(C)cn3)nc(NCCCO)nc12 [WO2004096810 Example 103] | 76.6 nM | – | –
24 | CCOCCn1nc(C)c2nc(N3CCN[C@H](C)C3)nc(Nc3cnc(C)c(C)c3)c21 [WO2004096810 Example 199] | 3.13 nM | – | –
25 | CCOCCn1nc(COC)c2nc(N(C)CCOC)nc(Nc3cc(C)ccn3)c21 [WO2004096810 Example 226] | 0.83 nM | – | –
26 | COCCCn1nc(C)c2nc(N[C@@H](C)CO)nc(Nc3cc(C)cc(C)n3)c21 [WO2004096810 Example 114] | 60.6 nM | – | –
27 | CCOCCn1nc(C)c2nc(N(C)CC)nc(Nc3ccnc(C)n3)c21 [WO2004096810 Example 218] | 11.5 nM | – | –
28 | CCOCCn1nc(C)c2nc(N3C[C@@H]4C[C@H]3CN4)nc(Nc3cc(C)cc(C)n3)c21 [WO2004096810 Example 234] | 8.79 nM | – | –
29 | CCOCCn1nc(COC)c2nc(N3CCN[C@H](C)C3)nc(Nc3cccc(C)n3)c21 [WO2004096810 Example 211] | 1.57 nM | – | –
30 | CCOCCn1nc(C)c2nc(N3CCN[C@H](C)C3)nc(Nc3cccc(C)n3)c21 [WO2004096810 Example 197] | 1.76 nM | – | –
31 | COCCn1nc(C)c2nc(N3CC[C@H](OC)C3)nc(Nc3cc(C)ccn3)c21 [WO2004096810 Example 95] | 76 nM | – | –
32 | CCOCCn1nc(CC)c2nc(N(C)[C@@H]3CCN(C)C3)nc(Nc3cc(C)ccn3)c21 [WO2004096810 Example 158] | 0.71 nM | – | –
33 | CCOCCn1nc(C)c2nc(N3CCN[C@H](C)C3)nc(Nc3cc(C(F)(F)F)ccn3)c21 [WO2004096810 Example 222] | 10.1 nM | – | –
34 | CCOCCn1nc(C)c2nc(N3C[C@@H]4C[C@H]3CN4C)nc(Nc3ccncn3)c21 [WO2004096810 Example 210] | 82.7 nM | – | –
35 | CCCc1nn(C)c2c(Nc3ccc(C)cn3)nc(N3CCN(C)CC3)nc12 [WO2004096810 Example 113] | 1250 nM | – | –
36 | CCc1nn(CCOC)c2c(Nc3cc(C)n[nH]3)nc(NCCn3cccn3)nc12 [WO2004096810 Example 115] | 220 nM | – | –
37 | COCCCn1nc(C)c2nc(N(C)CCO)nc(Nc3cc(C)ccn3)c21 [WO2004096810 Example 92] | 26.5 nM | – | –
